The results in this text go back to US20240391964A1, “COMPOSITIONS AND METHODS FOR THE TREATMENT OF CANCER” (The University of Western Australia, priority 2020, published 2024).

In one test the test system is T11 tumours. The test can be described thus: T11 allograft in BALB/c mice, intratumoral treatment. The class given is in vivo. The conditions noted are these: day 14 post-inoculation, mean±SEM. The method, then: To investigate the efficacy of the combination of melittin and docetaxel in reducing TNBC growth in vivo, T11 cells were transplanted in BALB/c mice. This allograft model recapitulates highly aggressive, TNBC claudin-low disease in mice with an intact immune system. Three days after the generation of T11 tumours (˜50 mm^3), mice were randomized into four groups (n=12 mice/group) and treated intratumorally with either vehicle, melittin (5 mg/Kg), docetaxel (7 mg/Kg), or a combination of melittin (5 mg/Kg) and docetaxel (7 mg/Kg). Mice were treated every two days from day three, with a total of seven treatments.
The therapeutic effects of melittin and docetaxel were validated in tumour tissues at day 14 post-inoculation of T11 cells by immunohistochemistry and immunofluorescence (FIG. 14A).

Test [1] concerns human TNBC and HER2-enriched breast cancer cells. Briefly: Cell viability dose-response assay, TNBC and HER2-enriched panel. Conditions: range over human TNBC and HER2-enriched breast cancer cells. The class given is cell-based.
Method: (§2) To assess anticancer efficacy and selectivity, both venom from European honeybees collected in Perth, Australia and melittin peptide were evaluated in dose-response assays in a panel of cell lines representative of the intrinsic breast cancer subtypes and in non-transformed cells.
Data are presented as mean±SEM in ng/μL or μM (to two decimal places). Experiments were performed in biological triplicate.
Test [2] has as its system SUM159 cells. The test can be described thus: Cleaved caspase-3 immunoblot. It is filed as cell-based, human.
Test [3] deals with SUM159 cells. The test can be described thus: Annexin V flow cytometry. It is filed as cell-based, human. The conditions noted are these: IC50 concentration, 60 minutes, mean±SEM. (In flow cytometry, cells or beads pass a laser one at a time.)
Method: To quantify the apoptotic, necrotic or dead cell populations after treatment, flow cytometry for the detection of Annexin V (an early marker of apoptosis) was performed.
For test [4], the system named is HDFa, SKBR3 and SUM159 cells. Briefly: Cell viability kinetics over one hour. The class given is cell-based, human. The conditions noted are these: IC50 concentrations.
Test [5] concerns p-HER2, p-EGFR, p-p44/42 MAPK, p-Akt in SKBR3 cells. Briefly: Immunoblotting of RTK signalling, SKBR3. The class given is cell-based, human. The conditions noted are these: SKBR3, EGF exposed, IC50, from 5 minutes onwards.
The test system of test [6] is p-EGFR, p-Akt, p-p44/42 MAPK in SUM159 cells. Briefly: Immunoblotting of RTK signalling, SUM159. It is filed as cell-based, human. (A western blot detects proteins with antibodies after separation by electrophoresis.)
Test [7] deals with EGFR and MAPK phosphorylation in MDA-MB-231 cells. The test can be described thus: Immunoblotting of RTK signalling, MDA-MB-231. It is filed as cell-based, human. Conditions: MDA-MB-231, EGF treatment. On the procedure:
To characterize the effects on signaling pathways in another TNBC model, immunoblotting was conducted on MDA-MB-231 cells, in which EGF treatment phosphorylated EGFR and induced EGFR expression (FIG. 8C). […] Other growth factor receptors such as VEGFR1 may mediate the activation of these pathways.

The test system of test [8] is JAK/STAT pathway in SUM159 cells. The test can be described thus: Western blot of JAK/STAT pathway. The class given is cell-based, human. Conditions: 60-minute treatment.
Test [9] concerns T11 cells. The test can be described thus: Cell viability, combination with docetaxel. The class given is cell-based, murine. Conditions: T11, 48 hours. The method, then: FIG. 15 presents the results of cell viability assays of T11 breast cancer cells treated with melittin or RGD1-melittin alone and in combination with docetaxel for 48 hours. Representative plots of the combination treatments are presented as mean±SEM.
The murine p53 TNBC cell line T11 was treated with docetaxel in combination with either melittin or RGD1-melittin, and cell viability assays were conducted to determine the combination effect between the treatments (FIG. 15).

Test [10] concerns T11 cells. The test can be described thus: Cell viability, combination with omomyc. The conditions noted are these: T11, 24 hours. It is filed as cell-based, murine. The method, then:
FIG. 16 presents the results of cell viability assays of T11 breast cancer cells treated with melittin or RGD1-melittin alone and in combination with omomyc for 24 hours. Representative plots of the combination treatments are presented as mean±SEM.
The murine p53 TNBC cell line T11 was treated with omomyc in combination with either melittin or RGD1-melittin, and cell viability assays were conducted to determine the combination effect between the treatments (FIG. 16).

The subject of another test is COV362 cells. It is filed as cell-based. Conditions: COV362, 24 h. The method, then: (§1) The OVCAR3 and COV362 ovarian cancer cell lines were treated with active RGD1-melittin and mutant RGD1-melittin (DEDE-RGD1-melittin). The COV362 cells were cultured in DMEM low glucose medium supplemented with 10% FBS. The OVCAR3 cells were grown in RPMI medium supplemented with 20% FBS. Cells were seeded overnight at a density of 5000 cells/p96-well plate and treated with active RGD1-melittin and mutant RGD1-melittin (RGD1-DEDE melittin), for 24 h at concentrations up to 20 µM. After treatments, cell viability was assessed using the CellTiter-Glo® assay according to the manufacturer's protocol (Promega; NSW, Australia). Luminescence signals were measured using the EnVision Multilabel Plate Reader (PerkinsElmer Inc.; Waltham, MA, USA). IC50s were calculated and transformed 95% confidence intervals provided by GraphPad Prism 6 software analysis (GraphPad Software Inc., San Diego, CA, USA).

The next test has as its system OVCAR3 cells. It is filed as cell-based. The conditions noted are these: OVCAR3, 24 h. The method, then: as §1
The subject of test [11] is SUM159 cells.
Method: FIG. 5C presents cell viability assays of human dermal fibroblasts (HDFa) and SUM159 treated with melittin (top) and RGD1-melittin (bottom) for 24 hours.
as §2

With `CC(=O)O[C@@]12CO[C@@H]1C[C@H](O)[C@@]1(C)C(=O)[C@H](O)C3=C(C)[C@@H](OC(=O)[C@H](O)[C@@H](NC(=O)OC(C)(C)C)c4ccccc4)C[C@@](O)([C@@H](OC(=O)c4ccccc4)[C@H]21)C3(C)C` [docetaxel], in the test with T11 tumours, the “PD-L1 expression in tumours” value is 84.3±0.6% and the “tumour cell proliferation (Ki-67 expression)” value is given as 21.0±1.3%.
Broadly, the IC50 is the point on the concentration scale where inhibition reaches its midpoint. In [1], `CC[C@H](C)[C@H](NC(=O)CN)C(=O)NCC(=O)N[C@@H](C)C(=O)N[C@H](C(=O)N[C@@H](CC(C)C)C(=O)N[C@@H](CCCCN)C(=O)N[C@H](C(=O)N[C@@H](CC(C)C)C(=O)N[C@H](C(=O)N[C@H](C(=O)NCC(=O)N[C@@H](CC(C)C)C(=O)N1CCC[C@H]1C(=O)N[C@@H](C)C(=O)N[C@@H](CC(C)C)C(=O)N[C@H](C(=O)N[C@@H](CO)C(=O)N[C@@H](Cc1c[nH]c2ccccc12)C(=O)N[C@H](C(=O)N[C@@H](CCCCN)C(=O)N[C@@H](CCCNC(=N)N)C(=O)N[C@@H](CCCCN)C(=O)N[C@@H](CCCNC(=N)N)C(=O)N[C@@H](CCC(N)=O)C(=O)N[C@@H](CCC(N)=O)C(N)=O)[C@@H](C)CC)[C@@H](C)CC)[C@@H](C)O)[C@@H](C)O)C(C)C)C(C)C` [melittin] registered an IC50 of 0.94 to 1.49 µM. In addition, the “induction of apoptosis (cleaved caspase-3)” value in the test on SUM159 cells [2] (24 hours) is recorded as “confirmed the anticancer activity”. Also, the “induction of cleaved caspase-3 (apoptosis)” value in the test with SUM159 cells [2] (IC50 concentration, 18 and 24 hours) is “higher level of apoptosis than honeybee venom”. Also, the late apoptotic/necrotic cells with SUM159 cells [3] was determined as 23.6±5.7%. The “cell viability over up to one hour” value in [4] is recorded as “significantly reduced the viability of both breast cancer cell lines compared to the normal cells from 10 minutes onwards”. Further, in test [5], the “p-HER2 (Tyr1248), p-EGFR (Tyr1068), p-p44/42 MAPK (Thr202/Tyr204), p-Akt (Ser473 and Thr308)” value is “strongly downregulated”. Moreover, in test [6] (SUM159, 10-20 minutes), the “p-EGFR (Tyr1068)” value is recorded as “strongly down-regulated” and the “p-p44/42 MAPK (Thr202/Tyr204)” value is reported as “upregulated”. The “p-Akt (Ser473 and Thr308)” value in test [6] (SUM159, melittin all time points, venom 10-20 minutes) was “suppressed”. Moreover, in test [7], the “phosphorylation of EGFR and MAPK” value was “reduced the phosphorylation of EGFR and MAPK”. For the same compound, the “effects on JAK/STAT pathway inhibitors” value in test [8] is on record as “No modulatory effects”. Moreover, in the test on T11 tumours, the “PD-L1 expression in tumours” value was 52.9±2.4% and the “tumour cell proliferation (Ki-67 expression)” value is listed as 31.7±1.3%. Further, in the test on T11 cells [9], the “combination effect with docetaxel on cell viability” value is recorded as “beneficial effect when combined with docetaxel”. The “combination effect with omomyc on cell viability” value in the test with T11 cells [10] is “beneficial effect when combined with omomyc”. The IC50 in the test on COV362 cells is 7.81 µM. Also, in the test on OVCAR3 cells, the midpoint of inhibition, the IC50, lay at 18.2 µM. Further, in the test on SUM159 cells [11] (24 hours, mean±SEM), the “ratio of the IC50s of HDFa/SUM159” value turned out to be 1.76±0.04. The “half-maximal inhibitory concentration (IC50)” value in the test on SUM159 cells [11] (TNBC SUM159) was 4.24 µg/mL.
